This passage reports IC50 results from US10981917B2, “Heterocyclic compound, its preparation method, and pharmaceutical composition comprising the same” (Daewoong Pharmaceutical Co., Ltd., priority 2017, dated 2021).

SMILES strings stand for the structures. Bounds are passed on as bounds.

The term IC50 denotes the concentration at which inhibition is half-maximal. High values mean weaker potency in that assay, low ones greater potency in that assay.

Sequence of PRS (prolyl-tRNA synthetase) protein, PRS portion of EPRS (P07814 1007-1512): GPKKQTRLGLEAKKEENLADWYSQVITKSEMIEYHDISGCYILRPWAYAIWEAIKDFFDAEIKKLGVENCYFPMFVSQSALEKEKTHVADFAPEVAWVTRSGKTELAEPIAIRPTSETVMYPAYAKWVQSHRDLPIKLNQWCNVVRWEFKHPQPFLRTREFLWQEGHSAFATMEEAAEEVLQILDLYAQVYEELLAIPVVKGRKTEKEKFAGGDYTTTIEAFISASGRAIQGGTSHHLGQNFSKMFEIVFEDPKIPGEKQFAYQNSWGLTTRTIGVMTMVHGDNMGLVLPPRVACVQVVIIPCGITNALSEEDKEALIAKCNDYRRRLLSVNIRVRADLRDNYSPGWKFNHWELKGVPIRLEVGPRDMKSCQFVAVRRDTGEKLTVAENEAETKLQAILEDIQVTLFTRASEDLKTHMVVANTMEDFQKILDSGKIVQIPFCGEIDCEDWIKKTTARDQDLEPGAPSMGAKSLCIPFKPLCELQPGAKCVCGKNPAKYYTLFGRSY

In this experiment the target is PRS (prolyl-tRNA synthetase) protein, PRS portion of EPRS (Homo sapiens (Human), UniProt P07814). The experiment can be described thus: PRS enzyme activity inhibition experiment ([3H]proline, liquid scintillation). It is filed as biochemical. Particulars: purified PRS protein, 37° C. for 5 to 10 minutes. The essentials:
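Values are % inhibition or IC50 ranges (A ≤100 nM, B 100–500 nM, C ≥500 nM) from [3H]proline incorporation measured by liquid scintillation. PRS portion of human EPRS, reacted 5–10 min at 37 °C in pH 7.4 phosphate buffer containing 5 mM ATP and tRNA, compound at 1 μM.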
The compound `O[C@H]1CCCN[C@@H]1CCCn1cnc2c(Cl)c(-c3cccc(Cl)c3)cnc21` [Example 134, (2R,3S)-2-(3-(7-chloro-6-(3-chlorophenyl)-3H-imidazo[4,5-b]pyridin-3-yl)propyl)piperidin-3-ol] yielded an IC50 of at least 500 nM.

On to `O=C(O)c1cn(C/C=C/[C@H]2NCCC[C@@H]2O)c2cc(F)ccc12` [Example 208, 6-fluoro-1-((E)-3-((2R,3S)-3-hydroxypiperidin-2-yl)allyl)-1H-indole-3-carboxylic acid], for which the IC50 is at least 500 nM.

On to `O[C@H]1CCCN[C@@H]1CCCn1nc(C(F)(F)F)c2cc(Cl)ccc21` [Example 156, (2R,3S)-2-(3-(5-chloro-3-(trifluoromethyl)-1H-indazol-1-yl)propyl)piperidin-3-ol], for which the IC50 is at least 500 nM.

Compound `O[C@H]1CCCN[C@@H]1CCCn1cnc2c(F)cc(Br)cc21` [Example 72, (2R,3S)-2-(3-(6-bromo-4-fluoro-1H-benzo[d]imidazol-1-yl)propyl)piperidin-3-ol] came in with an IC50 of 100 to 500 nM.

Regarding `Cc1ccc2c(c1)c(C)nn2C/C=C/[C@H]1NCCC[C@@H]1O` [Example 201, (2R,3S)-2-((E)-3-(3,5-dimethyl-1H-indazol-1-yl)prop-1-en-1-yl)piperidin-3-ol], the IC50 is at least 500 nM.

Take `O[C@H]1CCCN[C@@H]1CCCn1cnc2cc(Cl)cc(-c3cnn(CC4OCCO4)c3)c21` [Example 95, (2R,3S)-2-(3-(7-(1-((1,3-dioxolan-2-yl)methyl)-1H-pyrazol-4-yl)-5-chloro-1H-benzo[d]imidazol-1-yl)propyl)piperidin-3-ol]: the IC50 fell in the range of 100 to 500 nM.

With `O[C@H]1CCN[C@@H]1/C=C/Cn1cnc2cc(Cl)c(Cl)cc21` [Example 230, (2R,3S)-2-((E)-3-(5,6-dichloro-1H-benzo[d]imidazol-1-yl)prop-1-en-1-yl)pyrrolidin-3-ol], the IC50 is at least 500 nM.

`Cc1cc2ncn(C/C=C/[C@H]3NCCC[C@@H]3O)c2cc1C` [Example 169, (2R,3S)-2-((E)-3-(5,6-dimethyl-1H-benzo[d]imidazol-1-yl)prop-1-en-1-yl)piperidin-3-ol] displayed an IC50 of at least 500 nM.

`O[C@H]1CCCN[C@@H]1CCCn1cnc2cc(Cl)cc(C3=CCOCC3)c21` [Example 94, (2R,3S)-2-(3-(5-chloro-7-(3,6-dihydro-2H-pyran-4-yl)-1H-benzo[d]imidazol-1-yl)propyl)piperidin-3-ol] gave a half-inhibitory concentration (IC50) of 100 to 500 nM.

As for `O[C@H]1CCCN[C@@H]1CCCn1cnc2cc(Cl)cc(F)c21` [Example 79, (2R,3S)-2-(3-(5-chloro-7-fluoro-1H-benzo[d]imidazol-1-yl)propyl)piperidin-3-ol], the IC50 was at most 100 nM.

Compound `O[C@H]1CCCN[C@@H]1CCCn1cnc2cc(Br)c(F)cc21` [Example 35, (2R,3S)-2-(3-(5-bromo-6-fluoro-1H-benzo[d]imidazol-1-yl)propyl)piperidin-3-ol] displayed an IC50 of 100 to 500 nM.

Consider `O[C@H]1CCCN[C@H]1CCCn1cnc2c(Cl)c(Cl)ccc21` [Example 41, (2S,3S)-2-(3-(4,5-dichloro-1H-benzo[d]imidazol-1-yl)propyl)piperidin-3-ol], for which the 50% inhibitory concentration (IC50) was at least 500 nM.

In turn, `Cc1c(Br)ccc2c1ncn2CCC[C@H]1NCCC[C@@H]1O` [Example 45, (2R,3S)-2-(3-(5-bromo-4-methyl-1H-benzo[d]imidazol-1-yl)propyl)piperidin-3-ol] displayed a concentration for half-maximal inhibition (IC50) of 100 to 500 nM.

`O[C@H]1CCCN[C@@H]1/C=C/Cn1ccc2cccnc21` [Example 196, (2R,3S)-2-((E)-3-(1H-pyrrolo[2,3-b]pyridin-1-yl)prop-1-en-1-yl)piperidin-3-ol] had an IC50 of at least 500 nM.

For `O[C@H]1CCCN[C@@H]1/C=C/Cn1cnc2nc(Br)ccc21` [Example 184, (2R,3S)-2-((E)-3-(5-bromo-1H-imidazo[4,5-b]pyridin-1-yl)prop-1-en-1-yl)piperidin-3-ol], the half-inhibitory concentration (IC50) was at least 500 nM.

Regarding `O[C@H]1CCCN[C@@H]1CCCn1cnc2cc(Br)cc(F)c21` [Example 73, (2R,3S)-2-(3-(5-bromo-7-fluoro-1H-benzo[d]imidazol-1-yl)propyl)piperidin-3-ol], the IC50 was in the range of 100 to 500 nM.

Consider `O=[N+]([O-])c1c(Br)ccc2c1ncn2CCC[C@H]1NCCC[C@@H]1O` [Example 75, (2R,3S)-2-(3-(5-bromo-4-nitro-1H-benzo[d]imidazol-1-yl)propyl)piperidin-3-ol], for which the IC50 was at least 500 nM.

The compound `O[C@H]1CCCN[C@@H]1C#CCn1cnc2cc(Cl)c(Cl)cc21` [Example 225, (2R,3S)-2-(3-(5,6-dichloro-1H-benzo[d]imidazol-1-yl)prop-1-yn-1-yl)piperidin-3-ol] registered an IC50 of at least 500 nM.

For the compound `COC(=O)c1cn(C/C=C/[C@H]2NCCC[C@@H]2O)c2cc(Br)ccc12` [Example 214, methyl 6-bromo-1-((E)-3-((2R,3S)-3-hydroxypiperidin-2-yl)allyl)-1H-indole-3-carboxylate], the IC50 was in the range of 100 to 500 nM.

Take `O[C@H]1CCCN[C@@H]1CCCn1cnc2cc(Cl)cc(-c3cccnc3)c21` [Example 86, (2R,3S)-2-(3-(5-chloro-7-(pyridin-3-yl)-1H-benzo[d]imidazol-1-yl)propyl)piperidin-3-ol]: the IC50 lay within 100 to 500 nM.

`O[C@H]1CCCN[C@@H]1CCCn1cnc2cc(Cl)cc(-c3cn[nH]c3)c21` [Example 81, (2R,3S)-2-(3-(5-chloro-7-(1H-pyrazol-4-yl)-1H-benzo[d]imidazol-1-yl)propyl)piperidin-3-ol] returned an IC50 of at least 500 nM.

`COC(=O)c1cn(C/C=C/[C@H]2NCCC[C@@H]2O)c2ccc(Br)cc12` [Example 213, methyl 5-bromo-1-((E)-3-((2R,3S)-3-hydroxypiperidin-2-yl)allyl)-1H-indole-3-carboxylate] came in with an IC50 of at least 500 nM.

As for `Cc1ccc2c(nc(CO)n2CCC[C@H]2NCCC[C@@H]2O)c1C` [Example 146, (2R,3S)-2-(3-(2-(hydroxymethyl)-4,5-dimethyl-1H-benzo[d]imidazol-1-yl)propyl)piperidin-3-ol], the IC50 is at least 500 nM.

Regarding `O[C@H]1CCCN[C@@H]1CCCn1nc(-c2cnn(C(F)F)c2)c2ccc(Cl)cc21` [Example 158, (2R,3S)-2-(3-(6-chloro-3-(1-(difluoromethyl)-1H-pyrazol-4-yl)-1H-indazol-1-yl)propyl)piperidin-3-ol], the IC50 is at least 500 nM.

Consider `O[C@H]1CCCN[C@@H]1/C=C/Cn1cnc2cc(Cl)cc(Cl)c21` [Example 182, (2R,3S)-2-((E)-3-(5,7-dichloro-1H-benzo[d]imidazol-1-yl)prop-1-en-1-yl)piperidin-3-ol], for which the IC50 is at most 100 nM.

Compound `O[C@H]1CCCN[C@@H]1CCCn1cnc2cc(F)cc(F)c21` [Example 58, (2R,3S)-2-(3-(5,7-difluoro-1H-benzo[d]imidazol-1-yl)propyl)piperidin-3-ol] displayed an IC50 of at most 100 nM.

In turn, `O[C@H]1CCCN[C@@H]1/C=C/Cn1cnc2cc(Cl)cc(F)c21` [Example 183, (2R,3S)-2-((E)-3-(5-chloro-7-fluoro-1H-benzo[d]imidazol-1-yl)prop-1-en-1-yl)piperidin-3-ol] came in with an IC50 of 100 to 500 nM.

Regarding `Cc1cc(-c2cc(Cl)cc3ncn(CCC[C@H]4NCCC[C@@H]4O)c23)c(C)s1` [Example 114, (2R,3S)-2-(3-(5-chloro-7-(2,5-dimethylthiophen-3-yl)-1H-benzo[d]imidazol-1-yl)propyl)piperidin-3-ol], the IC50 was 100 to 500 nM.

`O[C@H]1CCCN[C@@H]1CCCn1cnc2cccc(-c3cn[nH]c3)c21` [Example 31, (2R,3S)-2-(3-(7-(1H-pyrazol-4-yl)-1H-benzo[d]imidazol-1-yl)propyl)piperidin-3-ol] displayed an IC50 of 100 to 500 nM.

Turning to `C/C(=C\[C@H]1NCCC[C@@H]1O)Cn1cnc2cc(Cl)c(Cl)cc21` [Example 223, (2R,3S)-2-((E)-3-(5,6-dichloro-1H-benzo[d]imidazol-1-yl)-2-methylprop-1-en-1-yl)piperidin-3-ol], the IC50 was at least 500 nM.

`O[C@H]1CCCN[C@@H]1CCCn1cnc2cc(Br)ccc21` [Example 3, (2R,3S)-2-(3-(5-bromo-1H-benzo[d]imidazol-1-yl)propyl)piperidin-3-ol] gave an IC50 of at least 500 nM.

For the compound `O[C@H]1CCCN[C@@H]1CCCn1cnc2cc(Cl)cc(-c3ccoc3)c21` [Example 104, (2R,3S)-2-(3-(5-chloro-7-(furan-3-yl)-1H-benzo[d]imidazol-1-yl)propyl)piperidin-3-ol], the IC50 was at most 100 nM.

In the case of `O[C@H]1CCCN[C@@H]1CCCn1cnc2cc(F)c(Br)cc21` [Example 33, (2R,3S)-2-(3-(6-bromo-5-fluoro-1H-benzo[d]imidazol-1-yl)propyl)piperidin-3-ol], the IC50 lay within 100 to 500 nM.

Turning to `O[C@H]1CCCN[C@@H]1CCCn1cnc2cc(Cl)cc(N3CCCC3)c21` [Example 99, (2R,3S)-2-(3-(5-chloro-7-(pyrrolidin-1-yl)-1H-benzo[d]imidazol-1-yl)propyl)piperidin-3-ol], the IC50 was at most 100 nM.

In turn, `COC(=O)c1cn(CCC[C@H]2NCCC[C@@H]2O)c2c(Cl)cccc12` [Example 154, methyl 7-chloro-1-(3-((2R,3S)-3-hydroxypiperidin-2-yl)propyl)-1H-indole-3-carboxylate] returned an IC50 of 100 to 500 nM.

Compound `COc1cc2ncn(CCC[C@H]3NCCC[C@@H]3O)c2cc1F` [Example 38, (2R,3S)-2-(3-(6-fluoro-5-methoxy-1H-benzo[d]imidazol-1-yl)propyl)piperidin-3-ol] yielded an IC50 of at least 500 nM.

In turn, `O[C@H]1CCCN[C@@H]1CCCn1cnc2cc(Cl)c(Cl)cc21` [Example 53, (2R,3S)-2-(3-(5,6-dichloro-1H-benzo[d]imidazol-1-yl)propyl)piperidin-3-ol] showed an IC50 of 100 to 500 nM.

In turn, `O[C@H]1CCCN[C@@H]1CCCn1cnc2cc(Cl)cc(-c3cccc(F)c3)c21` [Example 83, (2R,3S)-2-(3-(5-chloro-7-(3-fluorophenyl)-1H-benzo[d]imidazol-1-yl)propyl)piperidin-3-ol] gave an IC50 of at most 100 nM.

On to `Cc1c(F)ccc2c1ncn2CCC[C@H]1NCCC[C@@H]1O` [Example 64, (2R,3S)-2-(3-(5-fluoro-4-methyl-1H-benzo[d]imidazol-1-yl)propyl)piperidin-3-ol], for which the half-maximal inhibitory concentration (IC50) is at most 100 nM.
